Data: patent US20170313674A1, “BENZYLHYDROXIDE DERIVATIVES, PREPARATION THEREOF AND THERAPEUTIC USE THEREOF” (SANOFI, priority 2014, published 2017)
Like-named read-outs stand apart in the source and are kept apart here.

Assays:
[1] = tested on: HIF-1a; assay: Western blot model: HIF1-a stabilization in Hep3b cells under hypoxia; assay type: cell-based; conditions: hypoxia 1% O2, 6 hours; for Western Blot (range of decrease of HIF1-a stabilization): class symbol
Method: Since it was sought to determine the efficacy of the compounds to inhibit HIF1a stabilization under hypoxia, the compounds according to the invention underwent biochemical studies in order to determine their capacity to decrease HIF stabilization in Hep3b cells under hypoxia (western blot model).
Hep3B cells are seeded at a rate of 300000 cells per well in 6-wells culture plate in 2 ml of MEM supplemented with glutamin (2 mM) and 10% FCS (foetal calf serum) and incubated at 37° C. in the presence of 5% CO2. The next day, the cells are placed in contact with the compound and an incubation under hypoxia at 1% O2 is carried out at 37° C. in 95% humidity and 5% CO2 in a sealed anaerobic workstation (Hypoxystation H35-Don Whitley—AES Chemunex) during 6 hours.
Cells were washed (PBS) and lysed in SDS sample buffer. Proteins (25 μg) were separated on 4-12% Bis-Tris gels and transferred onto polyvinylidene difluoride membranes (Millipore). Membranes were blotted with a mouse monoclonal antibody to HIF-1a (BD transduction) and a mouse monoclonal anti-βactin (Sigma). Immunoreactive bands were detected with a horse radish peroxydase (HRP) anti-mouse antibody (Sigma) by enhanced chemiluminescence (Promega).
The inhibitory activity of the compounds for their capacity to decrease HIF1-a stabilization in Hep3b under hypoxia is expressed as range of percentage relative to control with: […]

[2] = tested on: mitochondrial ATP production on non-small cell lung carcinoma cell lines NCI-H460; assay: Mitochondrial ATP analysis (Cell Titer Glo) in NCI-H460 cells; assay type: cell-based; conditions: 1-hour incubation, with sodium iodoacetate (100 μM), concentration inhibiting 50% of mitochondrial ATP production, read-out: IC50 (mito ATP)
Summary of the method: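 NCI-H460 cells (1,000/well) treated 24 h after plating for 1 h with compound dose series alone or with 100 μM sodium iodoacetate; oligomycin A (10 μg/ml) and FCCP (30 μM) as controls; Cell Titer Glo luminescence. Mitochondrial ATP = ATP under iodoacetate minus ATP under iodoacetate+oligomycin; IC50 (M).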

SMILES	Western Blot (decrease of HIF1-a stabilization, percentage relative to control) [1] [%]	Western Blot (range of decrease of HIF1-a stabilization) [1]	IC50 ([2]; Homo sapiens, NCI-H460, 1 h) [nM]	IC50 [2] [nM]
COc1ccc(C(O)C(C)Oc2ccc(-c3cnc(-c4ccc(OC(C)C(O)c5ccc(OC)c(OC)c5)cc4)o3)cc2)cc1OC (stereo not drawn) [Compound I-45, 1-(3,4-dimethoxyphenyl)-2-[4-[2-[4-[2-(3,4-dimethoxyphenyl)-2-hydroxy-1-methyl-ethoxy]phenyl]oxazol-5-yl]phenoxy]propan-1-ol]	87	*** (*** represents a decrease of HIF-a stabilization higher than 70%)	426	–
COc1ccc(C(O)C(C)Oc2ccc(-c3nsc(-c4ccc(OC(C)C(O)c5ccc(OC)c(OC)c5)cc4)n3)cc2)cc1OC (stereo not drawn) [Compound I-39, 1-(3,4-dimethoxyphenyl)-2-[4-[5-[4-[2-(3,4-dimethoxyphenyl)-2-hydroxy-1-methyl-ethoxy]phenyl]-1,2,4-thiadiazol-3-yl]phenoxy]propan-1-ol]	51	** (** represents a decrease of HIF-a stabilization between 50 to 70%)	92.5	–
COc1ccc(C(O)COc2ccc(-c3noc(-c4ccc(OCC(O)c5ccc(OC)c(OC)c5)cc4)n3)cc2)cc1OC (single isomer, unassigned) [Compound I-47, 1-(3,4-dimethoxyphenyl)-2-[4-[5-[4-[2-(3,4-dimethoxyphenyl)-2-hydroxy-ethoxy]phenyl]-1,2,4-oxadiazol-3-yl]phenoxy]ethanol]	51	** (** represents a decrease of HIF-a stabilization between 50 to 70%)	> 10000	–
COc1ccc(C(O)COc2ccc(-c3csc(-c4ccc(OC(C)(C)C(O)c5ccc(OC)c(OC)c5)cc4)n3)cc2)cc1OC (stereo not drawn) [Compound I-63, 1-(3,4-dimethoxyphenyl)-2-[4-[4-[4-[2-(3,4-dimethoxyphenyl)-2-hydroxy-ethoxy]phenyl]thiazol-2-yl]phenoxy]-2-methyl-propan-1-ol]	64	** (** represents a decrease of HIF-a stabilization between 50 to 70%)	42.9	–
COc1ccc(C(O)COc2ccc(-c3nc(-c4ccc(OC(C)(C)C(O)c5ccc(OC)c(OC)c5)cc4)cs3)cc2)cc1OC (stereo not drawn) [Compound I-64, 1-(3,4-dimethoxyphenyl)-2-[4-[2-[4-[2-(3,4-dimethoxyphenyl)-2-hydroxy-ethoxy]phenyl]thiazol-4-yl]phenoxy]-2-methyl-propan-1-ol]	58	** (** represents a decrease of HIF-a stabilization between 50 to 70%)	180	–
COc1ccc(C(O)C(C)Oc2ccc(-c3csc(-c4ccc(OC(C)C(O)c5ccc(OC)c(OC)c5)cc4)n3)cc2)cc1OC (single isomer, unassigned) [Compound I-29, 1-(3,4-dimethoxyphenyl)-2-[4-[2-[4-[2-(3,4-dimethoxyphenyl)-2-hydroxy-1-methyl-ethoxy]phenyl]thiazol-4-yl]phenoxy]propan-1-ol]	67	** (** represents a decrease of HIF-a stabilization between 50 to 70%)	–	159
COc1ccc(C(O)C(C)(C)Oc2ccc(-c3nc(-c4ccc(OC(C)(C)C(O)c5ccc(OC)c(OC)c5)cc4)c(C)s3)cc2)cc1OC (single isomer, unassigned) [Compound I-9, 1-(3,4-dimethoxyphenyl)-2-[4-[2-[4-[2-(3,4-dimethoxyphenyl)-2-hydroxy-1,1-dimethyl-ethoxy]phenyl]-5-methyl-thiazol-4-yl]phenoxy]-2-methyl-propan-1-ol]	58.5	** (** represents a decrease of HIF-a stabilization between 50 to 70%)	3.86	–
COc1ccc(C(O)C(C)(C)Oc2ccc(-c3csc(-c4ccc(OC(C)(C)C(O)c5ccc(OC)c(OC)c5)cc4)c3)cc2)cc1OC (stereo not drawn) [Compound I-34, 1-(3,4-dimethoxyphenyl)-2-[4-[5-[4-[2-(3,4-dimethoxyphenyl)-2-hydroxy-1,1-dimethyl-ethoxy]phenyl]-3-thienyl]phenoxy]-2-methyl-propan-1-ol]	64	** (** represents a decrease of HIF-a stabilization between 50 to 70%)	6	–
COc1ccc(C(O)C(C)(C)Oc2ccc(-c3noc(-c4ccc(OC(C)(C)C(O)c5ccc(OC)c(OC)c5)cc4)n3)cc2)cc1OC (single isomer, unassigned) [Compound I-37, 1-(3,4-dimethoxyphenyl)-2-[4-[5-[4-[2-(3,4-dimethoxyphenyl)-2-hydroxy-1,1-dimethyl-ethoxy]phenyl]-1,2,4-oxadiazol-3-yl]phenoxy]-2-methyl-propan-1-ol]	74	*** (*** represents a decrease of HIF-a stabilization higher than 70%)	94.3	–
COc1ccc(C(O)C(C)(C)Oc2ccc(-c3nc(-c4ccc(OC(C)(C)C(O)c5ccc(OC)c(OC)c5)cc4)c(C)o3)cc2)cc1OC (single isomer, unassigned) [Compound I-4, 1-(3,4-dimethoxyphenyl)-2-[4-[2-[4-[2-(3,4-dimethoxyphenyl)-2-hydroxy-1,1-dimethyl-ethoxy]phenyl]-5-methyl-oxazol-4-yl]phenoxy]-2-methyl-propan-1-ol]	72	*** (*** represents a decrease of HIF-a stabilization higher than 70%)	–	12
COc1ccc(C(O)COc2ccc(-c3nc(-c4ccc(OCC(O)c5ccc(OC)c(OC)c5)cc4)c(C)o3)cc2)cc1OC (stereo not drawn) [Compound I-1, 1-(3,4-dimethoxyphenyl)-2-[4-[2-[4-[2-(3,4-dimethoxyphenyl)-2-hydroxy-ethoxy]phenyl]-5-methyl-oxazol-4-yl]phenoxy]ethanol]	48	* (* represents a decrease of HIF-a stabilization between 30 to 50%)	353	–
COc1ccc(C(O)COc2ccc(-c3nc(-c4ccc(OCC(O)c5ccc(OC)c(OC)c5)cc4)c(C)s3)cc2)cc1OC (stereo not drawn) [Compound I-7, 1-(3,4-dimethoxyphenyl)-2-[4-[2-[4-[2-(3,4-dimethoxyphenyl)-2-hydroxy-ethoxy]phenyl]-5-methyl-thiazol-4-yl]phenoxy]ethanol]	63	** (** represents a decrease of HIF-a stabilization between 50 to 70%)	284	–
